According to the NIST ThermoML archive (doi:10.1016/j.jct.2006.04.007):
Where “and” joins values, the source holds several entries; their conditions need not be identical. Equal values may be shown once.

Assay: mn = molality of the nth substance listed, in mol/kg
Conditions: 350 kPa, Liquid; for apparent molar heat capacity: Extra sensitive DSC

CC(=O)N[C@@H](C=O)[C@@H](O)[C@H](O)[C@H](O)CO [N-acetyl-D-glucosamine] + O
Conditions	apparent molar heat capacity	mass density
278.15 K, m1 = 0.0096	385 J/K/mol	–
278.15 K, m1 = 0.01	–	1000.31 kg/m3
278.15 K, m1 = 0.02	–	1001.78 kg/m3
278.15 K, m1 = 0.0207	377 J/K/mol	–
278.15 K, m1 = 0.03	365 J/K/mol and 358 J/K/mol	1002.26 kg/m3 and 1001.98 kg/m3
278.15 K, m1 = 0.07	362 J/K/mol	1005.5 kg/m3
278.15 K, m1 = 0.1502	348.5 J/K/mol	1012.23 kg/m3
278.15 K, m1 = 0.1999	368.5 J/K/mol	1014.67 kg/m3
278.15 K, m1 = 0.3018	373.1 J/K/mol	1021.8 kg/m3
278.15 K, m1 = 0.5001	378.3 J/K/mol	1035.28 kg/m3
278.15 K, m1 = 0.7003	380.2 J/K/mol	1047.7 kg/m3
278.15 K, m1 = 0.958	358.2 J/K/mol	1065.18 kg/m3
283.15 K, m1 = 0.0096	416 J/K/mol	–
283.15 K, m1 = 0.01	–	1000.13 kg/m3
283.15 K, m1 = 0.02	–	1001.42 kg/m3
283.15 K, m1 = 0.0207	403 J/K/mol	–
283.15 K, m1 = 0.03	385 J/K/mol and 387 J/K/mol	1001.76 kg/m3 and 1002.02 kg/m3
283.15 K, m1 = 0.07	385 J/K/mol	1005.11 kg/m3
283.15 K, m1 = 0.1502	374.5 J/K/mol	1011.82 kg/m3
283.15 K, m1 = 0.1999	392.8 J/K/mol	1014.24 kg/m3
283.15 K, m1 = 0.3018	396.5 J/K/mol	1021.3 kg/m3
283.15 K, m1 = 0.5001	401.6 J/K/mol	1034.59 kg/m3
283.15 K, m1 = 0.7003	403.8 J/K/mol	1046.91 kg/m3
283.15 K, m1 = 0.958	381.8 J/K/mol	1064.21 kg/m3
288.15 K, m1 = 0.0096	435 J/K/mol	–
288.15 K, m1 = 0.01	–	999.6 kg/m3
288.15 K, m1 = 0.02	–	1000.86 kg/m3
288.15 K, m1 = 0.0207	421 J/K/mol	–
288.15 K, m1 = 0.03	404 J/K/mol and 401 J/K/mol	1001.23 kg/m3 and 1001.43 kg/m3
288.15 K, m1 = 0.07	405 J/K/mol	1004.42 kg/m3
288.15 K, m1 = 0.1502	394.4 J/K/mol	1011.1 kg/m3
288.15 K, m1 = 0.1999	411.9 J/K/mol	1013.51 kg/m3
288.15 K, m1 = 0.3018	415.2 J/K/mol	1020.51 kg/m3
288.15 K, m1 = 0.5001	420.1 J/K/mol	1033.66 kg/m3
288.15 K, m1 = 0.7003	422 J/K/mol	1045.87 kg/m3
288.15 K, m1 = 0.958	400.5 J/K/mol	1063.03 kg/m3
293.15 K, m1 = 0.0096	450 J/K/mol	–
293.15 K, m1 = 0.0207	436 J/K/mol	–
293.15 K, m1 = 0.03	420 J/K/mol and 415 J/K/mol	–
293.15 K, m1 = 0.07	421 J/K/mol	–
293.15 K, m1 = 0.1502	411.4 J/K/mol	–
293.15 K, m1 = 0.1999	428.3 J/K/mol	–
293.15 K, m1 = 0.3018	431.3 J/K/mol	–
293.15 K, m1 = 0.5001	436 J/K/mol	–
293.15 K, m1 = 0.7003	437.9 J/K/mol	–
293.15 K, m1 = 0.958	416.6 J/K/mol	–
298.15 K, m1 = 0.0096	462 J/K/mol	–
298.15 K, m1 = 0.0207	449 J/K/mol	–
298.15 K, m1 = 0.03	433 J/K/mol and 432 J/K/mol	–
298.15 K, m1 = 0.07	437 J/K/mol	–
298.15 K, m1 = 0.1502	426.5 J/K/mol	–
298.15 K, m1 = 0.1999	442.5 J/K/mol	–
298.15 K, m1 = 0.3018	445.2 J/K/mol	–
298.15 K, m1 = 0.5001	449.8 J/K/mol	–
298.15 K, m1 = 0.7003	451.5 J/K/mol	–
298.15 K, m1 = 0.958	430.5 J/K/mol	–
303.15 K, m1 = 0.0096	474 J/K/mol	–
303.15 K, m1 = 0.0207	461 J/K/mol	–
303.15 K, m1 = 0.03	445 J/K/mol and 447 J/K/mol	–
303.15 K, m1 = 0.07	451 J/K/mol	–
303.15 K, m1 = 0.1502	440 J/K/mol	–
303.15 K, m1 = 0.1999	455 J/K/mol	–
303.15 K, m1 = 0.3018	457.8 J/K/mol	–
303.15 K, m1 = 0.5001	462.3 J/K/mol	–
303.15 K, m1 = 0.7003	463.7 J/K/mol	–
303.15 K, m1 = 0.958	443.2 J/K/mol	–
308.15 K, m1 = 0.0096	486 J/K/mol	–
308.15 K, m1 = 0.01	–	994.68 kg/m3
308.15 K, m1 = 0.02	–	995.7 kg/m3
308.15 K, m1 = 0.0207	472 J/K/mol	–
308.15 K, m1 = 0.03	456 J/K/mol and 459 J/K/mol	996.2 kg/m3 and 996.26 kg/m3
308.15 K, m1 = 0.07	462 J/K/mol	999.2 kg/m3
308.15 K, m1 = 0.1502	452.2 J/K/mol	1005.72 kg/m3
308.15 K, m1 = 0.1999	466.4 J/K/mol	1008.07 kg/m3
308.15 K, m1 = 0.3018	469.2 J/K/mol	1014.85 kg/m3
308.15 K, m1 = 0.5001	473.5 J/K/mol	1027.59 kg/m3
308.15 K, m1 = 0.7003	474.7 J/K/mol	1039.58 kg/m3
308.15 K, m1 = 0.958	454.6 J/K/mol	1056.31 kg/m3
313.15 K, m1 = 0.0096	496 J/K/mol	–
313.15 K, m1 = 0.0207	482 J/K/mol	–
313.15 K, m1 = 0.03	465 J/K/mol and 470 J/K/mol	–
313.15 K, m1 = 0.07	473.4 J/K/mol	–
313.15 K, m1 = 0.1502	463.3 J/K/mol	–
313.15 K, m1 = 0.1999	476.7 J/K/mol	–
313.15 K, m1 = 0.3018	479.6 J/K/mol	–
313.15 K, m1 = 0.5001	483.8 J/K/mol	–
313.15 K, m1 = 0.7003	484.8 J/K/mol	–
313.15 K, m1 = 0.958	465.2 J/K/mol	–
318.15 K, m1 = 0.0096	506 J/K/mol	–
318.15 K, m1 = 0.01	–	990.9 kg/m3
318.15 K, m1 = 0.02	–	991.84 kg/m3
318.15 K, m1 = 0.0207	491 J/K/mol	–
318.15 K, m1 = 0.03	474 J/K/mol and 479 J/K/mol	992.39 kg/m3 and 992.41 kg/m3
318.15 K, m1 = 0.07	483.8 J/K/mol	995.31 kg/m3
318.15 K, m1 = 0.1502	473.6 J/K/mol	1001.76 kg/m3
318.15 K, m1 = 0.1999	486.3 J/K/mol	–
318.15 K, m1 = 0.3018	489.2 J/K/mol	–
318.15 K, m1 = 0.5001	493.4 J/K/mol	–
318.15 K, m1 = 0.7003	494.2 J/K/mol	–
318.15 K, m1 = 0.958	475 J/K/mol	–
